From US4578397A, “Indeno(1,2-b)pyrrole derivatives” (Yoshitomi Pharmaceutical Industries, Ltd., priority 1982, dated 1986)

Legend:
[1] = test system: bicuculline-induced tonic convulsion; assay: Anti-bicuculline effect (anti-tonic convulsion), oral; type: in vivo; details: Mus musculus, 5 min; bicuculline 0.6 mg/kg i.v. 60 min after oral test compound; protection of 50% against tonic convulsion within 5 min; male dd-mice; read-out: Anti-bicuculline-convulsive effect, ED50
Method: 2. Anti-bicuculline Effect
Groups of 4-14 male dd-mice were used. Bicuculline (0.6 mg/kg) was administered intravenously 60 minutes after the oral administration of test compound, and the ED50, the dose required to protect 50% of the animals against tonic convulsion within 5 minutes was determined.

[2] = test system: picrotoxin-induced lethality; assay: Anti-picrotoxin effect (anti-lethal), oral; type: in vivo, male dd-mice; details: Mus musculus, 0.5 h, read-out: Anti-picrotoxin-lethal effect, ED50
Method: 1. Anti-picrotoxin Effect
Groups of 7-14 male dd-mice were used. Picrotoxin (5 mg/kg) was administered subcutaneously 60 minutes after the oral administration of test compound, and the 50% anti-lethal dose (ED50) was calculated from the servival rate within 30 minutes.

[3] = administered peripherally; cited from earlier work

Compound	ED50 [1]	ED50 [2]	transmission through the blood-brain barrier [3]
O=C1CC2Cc3c(Cl)cccc3C2N1 (centres unmarked) [A, 5-chloro-1,2,3,3a,4,8b-hexahydro-indeno[1,2-b]pyrrol-2-one]	75 mg/kg	18 mg/kg	
NCCCC(=O)O [GABA, gamma-aminobutyric acid]			hard to transmit through the blood-brain barrier
O=C1CC2Cc3ccc(F)cc3C2N1 (centres unmarked) [D, 7-Fluoro-1,2,3,3a,4,8b-hexahydro-indeno[1,2-b]pyrrol-2-one]	56 mg/kg	48 mg/kg	
O=C1CC2Cc3ccccc3C2N1 (centres unmarked) [Compound E, 1,2,3,3a,4,8bHexahydro-indeno[1,2b]pyrrol2-one, reference compound]	> 100 mg/kg	> 100 mg/kg	
CN1C(=O)CC2Cc3c(Cl)cccc3C21 (centres unmarked) [B, 5-chloro-1-methyl-1,2,3,3a,4,8b-hexahydro-indeno[1,2-a]pyrrol-2-one]	68 mg/kg	36 mg/kg	
Fc1ccc2c(c1)CC1CC(=S)NC21 (centres unmarked) [C, 6-Fluoro-1,2,3,3a,4,8b-hexahydro-indeno[1,2-b]pyrrol-2-thione]	70 mg/kg	45 mg/kg	
